The source of these data is patent publication US9457015B2, “2-aminothiazole derivative and anti-cancer composition comprising same as active ingredient” (Chung-Ang University Industry-Academic Cooperation …, priority 2012, dated 2016).

For one assay, the system named is lung cancer cells (A549). The assay can be described thus: Cytotoxicity by MTT analysis, A549. In kind it is cell-based. As for the experimental part: (§1) Toxicity to cells was analyzed using 3-[4,5-dimethylthiazol-2-yl]-2,5-diphenyl-tetra zolium bromide (MTT) analysis. As cancer cells to be measured, 8.0×10^3 cells/mL was aliquoted on a 96-well culture dish and then the cells were cultured for 24 hours. The next day, the synthesized compound was dissolved in a medium according to each concentration, and diluted in a medium according to each concentration. The medium in which the compound was dissolved according to each concentration was added to a culture dish at […], dimethyl sulfoxide (DMSO) was added to a control well so as to have the same volume as the added compound. After the addition, the cells were cultured in an incubator in 5% CO2 at 37° C., and then survival capability of cells was measured at 24 hours and 48 hours after the culture. After the medium was removed, the cells were washed twice using PBS, then 200 μL of a solution containing 1 mg/mL of MTT (Sigma-Aldrich Chemical Co., USA) was added thereto, and then the cells were further cultured for 3 hours in a CO2 incubator at 37° C. The 96-well culture dish was centrifuged for 10 minutes at 2000 rpm to remove the MTT solution. […] The solution was added to the 96-well culture dish, and then absorbance was measured at 540 nm. Relative absorbance was calculated using absorbance according to concentration of drugs divided by absorbance of a control group (drug-untreated group).

Assay [1] concerns ovarian cancer cells (SK-OV-3). Briefly: Cytotoxicity by MTT analysis, SK-OV-3. The conditions noted are these: Homo sapiens, SK-OV-3, MTT analysis, read-out: IC50 (nM) SK-OV3 Ovarian cancer. In kind it is cell-based. The protocol:
as §1

The test system of assay [2] is skin cancer cells (SK-MEL2). The assay can be described thus: Cytotoxicity by MTT analysis, SK-MEL2. The class given is cell-based. The protocol:
as §1

Assay [3] has as its system colorectal cancer cells (HCT15). Briefly: Cytotoxicity by MTT analysis, HCT15. In kind it is cell-based. The protocol: as §1
The subject of assay [4] is prostate cancer cell line, PC3. Briefly: Cytotoxicity by MTT analysis, PC3. In kind it is cell-based. Conditions: PC3 prostate cancer cells. As for the experimental part:
The prostate cancer cell line, PC3 was obtained from Korean Cell Line Bank. After adding Rosewell Park Memorial Institute (RPMI) 1640 cell culture medium (LM001-01, WelGEN) containing 10% fetal bovine serum (FBS), 100 units/mL of penicillin and 100 μg/mL of streptomycin to a 100 Φ dish, cells were inoculated on the dish and cultured in a CO2 incubator (VS-9000C, vision) in 5% CO2/95% humidified air atmosphere at 37° C.
Toxicity to cells was analyzed using 3-[4,5-dimethylthiazol-2-yl]-2,5-diphenyl-tetra zolium bromide (MTT) analysis. As cancer cells to be measured, 8.0×10^3 cells/mL was aliquoted on a 96-well culture dish and then the cells were cultured for 24 hours. The next day, the synthesized compound was dissolved in a medium according to each concentration, and diluted in a medium according to each concentration. […] After the addition, the cells were cultured in an incubator in 5% CO2 at 37° C., and then survival capability of cells was measured at 24 hours and 48 hours after the culture. […] The solution was added to the 96-well culture dish, and then absorbance was measured at 540 nm. Relative absorbance was calculated using absorbance according to concentration of drugs divided by absorbance of a control group (drug-untreated group).

Assay [5] has as its system breast cancer cells (MCF7). The assay can be described thus: Cytotoxicity by MTT analysis, MCF7. In kind it is cell-based. Conditions: Homo sapiens. The protocol: as §1
The subject of assay [6] is prostate cancer cell line, PC3, transplanted. The assay can be described thus: Anti-cancer effect in vivo in mice with transplanted PC3 tumors. Conditions: 2 mg/kg/day i.v. for four consecutive days, compared 7 days after stoppage. As for the experimental part: The anti-cancer activity of the compound according to the present invention, HF-154 was measured in in-vivo using mice in which a prostate cancer cell line, PC3, was transplanted. An experimental group included a group of two mice to which an excipient (vehicle) was administered and a group of four mice to which the compound according to the present invention, HF-154, was administered. The compound according to the present invention, HF-154, was administered to each mouse in an amount of 2 mg/kg/day (100 μL i.v.). First, after administration for four consecutive days, administration was stopped, and tumor growth was compared at 7 days after the stoppage.

In general, IC50 refers to the concentration needed to halve the response being measured.

`O=C(CCc1ccco1)Nc1ncc(-c2ccc(F)cc2)s1` [HF-154, N-(5-(4-fluorophenyl)thiazol-2-yl)-3-(furan-2-yl)propanamide]: the 50% inhibitory concentration (IC50) in the assay with lung cancer cells (A549) is ~3 nM; in assay [1], ~0.5 nM; in assay [2] it was ~5 nM; in assay [3] (Homo sapiens, HCT-15, MTT analysis) it was 1 to 5 nM; in assay [3] (MTT analysis) it was ~1 nM; in assay [4], ~0.1 nM. Also, the 50% inhibitory concentration (IC50) in assay [5] was ~0.3 nM. Besides, in assay [6], the “size of the tumor compared to the excipient administration group” value was “significantly reduced”.
